Activity calls are given as the source filed them.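 Rule for the calls: active = maximal percent inhibition of the deubiquitinase OTUD3 of at least 30% across the tested doses; inactive = the rest.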
Target: OTU domain-containing protein 3 (Homo sapiens) (UniProt Q5T2D3)
Test: Validation of screening hits, potency titration, in vitro enzymatic, OTU domain-containing protein 3 DUB inhibitors (AID 1645868)
Conditions: purified OTUD3, ubiquitin-rhodamine cleavage fluorescence, 2 h

OTU domain-containing protein 3 (Homo sapiens), sequence (Q5T2D3 whole entry, looked up, the tested form may be a part): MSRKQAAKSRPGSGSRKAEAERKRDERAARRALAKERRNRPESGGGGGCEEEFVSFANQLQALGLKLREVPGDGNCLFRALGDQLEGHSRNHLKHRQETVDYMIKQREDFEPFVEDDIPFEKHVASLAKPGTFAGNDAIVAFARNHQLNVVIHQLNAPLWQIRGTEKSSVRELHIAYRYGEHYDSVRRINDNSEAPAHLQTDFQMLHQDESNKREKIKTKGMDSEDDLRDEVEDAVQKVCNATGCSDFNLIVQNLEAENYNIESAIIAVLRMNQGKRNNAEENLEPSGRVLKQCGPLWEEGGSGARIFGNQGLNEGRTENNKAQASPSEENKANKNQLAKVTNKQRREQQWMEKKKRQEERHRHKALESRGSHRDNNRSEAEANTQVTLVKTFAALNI

| IC50 | SMILES |
| --- | --- |
| > 50 µM (inactive) | COc1ccccc1-c1ccc(SCC(=O)Nc2ccc3c(c2)OCCO3)nn1 |
| > 50 µM (inactive) | Cc1cc(C(=O)Nc2cc(C)n(Cc3ccc(Cl)cc3)n2)no1 |
| 32 µM | Cc1cccc(-n2nc(C)c3c2NC(=O)CC3C(=O)c2cc3ccccc3o2)c1 (centres undefined) |
| > 50 µM (inactive) | Cc1ccc(-n2nnc(C(=O)NC3CCCCC3)c2N)cc1 |
| > 50 µM (inactive) | Cc1oc(C2CC2)cc1C(=O)N1CCC2(CC1)CC1(CO2)Nc2ccccc2-n2cccc21 (centres undefined) |
| > 50 µM (inactive) | Cc1ccc(-c2ccc(N3CCOCC3)nn2)cc1S(=O)(=O)N1CCOCC1 |
| > 50 µM (inactive) | Cc1cc(C(=O)N2CCOCC2)c(C)n1-c1ccc(O)cc1 |
| > 5 µM (inactive) | Cc1ncc(CO)c2c1Oc1nc(-c3cccc(Cl)c3)nc(SCC(=O)N3CCCCC3)c1C2 |
| 37.1 µM | O=C(COC(=O)c1cc(Cl)ccc1O)Nc1ccc2c(c1)OCCO2 |
| > 50 µM (inactive) | CCc1ccc(C(C)NC(=O)C2CCN(c3ccc4nncn4n3)CC2)cc1 (centres undefined) |
| > 50 µM (inactive) | Cc1c(C(=O)Nc2cccc(C(F)(F)F)c2)cnn1-c1ccccn1 |
| > 50 µM (inactive) | O=C(c1ccc2cc[nH]c2c1)N1CCC(Nc2cccnc2)C1 (centres undefined) |
| 30.9 µM | O=C(CCc1c[nH]c2ccccc12)Nc1ccc(N2CCOCC2)cc1 |
| > 50 µM (inactive) | CC1CCCCN1CCCNC(=O)c1ccc(N2CCc3ccccc32)s1 (centres undefined) |
| > 50 µM (inactive) | O=C(COc1ccc(Cl)cc1)N1CCc2cc3ccccc3nc21 |
| 37.9 µM | Cc1ccc(NC(=O)c2sc3ncn(CC(=O)N4CCN(c5ccccn5)CC4)c(=O)c3c2C)c(Br)c1 |

| IC50 | SMILES |
| --- | --- |
| > 50 µM (inactive) | COc1cccc(NC(=O)c2ccc(F)cc2Cl)c1 |
| > 50 µM (inactive) | COc1ccc(C)cc1NC(=O)C(NS(=O)(=O)c1ccc2c(c1)CCN2C(C)=O)C(C)C (centres undefined) |
| > 50 µM (inactive) | O=C(Nc1ccc2c(c1)OCCO2)Nc1nnc(CC(=O)N2CCCCC2)s1 |
| > 50 µM (inactive) | CC(C)NC(=O)Cn1ccn2nc(-c3ccc(Cl)cc3)cc2c1=O |
| > 50 µM (inactive) | c1ccc2c(c1)CCc1c-2nc2ccccc2c1N1CCOCC1 |
| > 50 µM (inactive) | O=C(Nc1cccc(N2CCCC2=O)c1)c1cccc2cccnc12 |
| > 50 µM (inactive) | COc1ccc(CCNC(=O)c2cc(C3CC3)nc3c2cnn3C(C)C)cc1 |
| > 50 µM (inactive) | Cc1ccc(-n2cc3c(N4CCCC(C(=O)NCC5CCCCC5)C4)ncnc3n2)cc1 (centres undefined) |
| 4.98 µM | O=C(Cn1cc(C(=O)C(F)(F)F)c2ccccc21)N1CCc2ccccc21 |
| > 50 µM (inactive) | COc1ccc(-n2c(=O)c(CCC(=O)O)nc3ccccc32)cc1 |
| > 50 µM (inactive) | COc1ccc(S(=O)(=O)N2CCN3Cc4ccccc4N(C)CC3C2)cc1 (centres undefined) |
| > 50 µM (inactive) | CC(C)OC(=O)c1cc2c(ccn2-c2ccc(F)cc2)n1CC(=O)NC1CCCCC1 |
| > 50 µM (inactive) | O=C(CCC1CCCCC1)Nc1ccccc1C(=O)N1CCOCC1 |
| > 50 µM (inactive) | Cc1cccc(NC(=O)c2ccn(COc3ccc(F)cc3F)n2)c1C |
| > 50 µM (inactive) | COc1ccc(NC(=O)c2nnn(-c3ccccc3C)c2C)cc1OC |
| > 50 µM (inactive) | CC(=O)N1CCc2cc(S(=O)(=O)NCc3ccc(C)cc3)ccc21 |

The remaining lines, values behind:

| SMILES | IC50 |
| --- | --- |
| COC1=C(C2=C(OC)C(=O)c3cc4c(c(O)c3C2=O)C(=O)OC(C)C4)C(=O)c2c(cc3c(c2O)C(=O)OC(C)C3)C1=O (centres undefined) | 3.28 µM |
| O=C(Cn1c(=O)n(Cc2ccc(F)cc2)c(=O)c2sccc21)Nc1cccc(Cl)c1 | 23.1 µM |
| COc1ccccc1NC(=O)c1cc(-c2ccccn2)nc2ccccc12 | 39.3 µM |
| CC1CCN(c2nc(F)c3c(c2F)S(=O)(=O)CCN3Cc2cccnc2)CC1 | > 50 µM (inactive) |
| O=[N+]([O-])c1cccc(CSc2nnc(/C=C/c3ccccc3)o2)c1 | > 50 µM (inactive) |
| N#Cc1c(-c2cccs2)cc(-c2cccs2)[nH]c1=O | > 50 µM (inactive) |
| c1ccc(-n2nnc(-c3noc(-c4ccccn4)n3)c2-c2ccncc2)cc1 | 38.7 µM |
| COc1ccc(C(C)NC(=O)c2cnc(-c3ccccc3)nc2-c2ccncc2)cc1 (centres undefined) | > 50 µM (inactive) |
| O=C(NC1CC1)c1ccnn1-c1ccc2ccc(-c3ccncc3)cn12 | > 50 µM (inactive) |
| O=C(Cc1c[nH]c2ccccc12)Nc1nc2ccccc2s1 | > 50 µM (inactive) |
| Cn1c2ccccc2c(=O)c2c(=O)n(Cc3ccccc3)c(-c3ccco3)nc21 | 1.55 µM |
| COCCCn1c(C(=O)Nc2ccccc2OC)cc2c(=O)n3ccccc3nc21 | > 50 µM (inactive) |
| O=C(Cc1cccc2ccccc12)Nc1nc2ccc(F)cc2s1 | > 50 µM (inactive) |
| Cc1ccc(NC2=NC(c3ccco3)n3c(nc(C)cc3=O)N2)c(C)c1 (centres undefined) | > 50 µM (inactive) |
| CCc1nc(SCC(=O)Nc2ccccc2Cl)c2oc3ccccc3c2n1 | 1.92 µM |
| CC(C)(C)n1ncc2c(=O)n(Cc3cccc([N+](=O)[O-])c3)cnc21 | > 50 µM (inactive) |
| N#Cc1ccc(Cn2nnc(-c3cccc(Cl)c3)n2)cc1 | > 50 µM (inactive) |
| COc1ccc(NC(=O)COc2ccc3ccc(=O)oc3c2)cc1 | > 50 µM (inactive) |
| O=C(Cn1c(=O)n(-c2ccccc2)c(=O)c2ccc(C(=O)NCc3ccc4c(c3)OCO4)cc21)NCCC1=CCCCC1 | 34.4 µM |
| FC(F)(F)c1cccc(CSc2ccc3nnc(-c4ccccn4)n3n2)c1 | > 50 µM (inactive) |
| Cc1nc(NCc2ccccn2)c2cc(-c3ccccc3)sc2n1 | 45.3 µM |

| SMILES | IC50 |
| --- | --- |
| Cc1c(OCC(=O)Nc2nc3ccccc3[nH]2)ccc2c3c(c(=O)oc12)CCC3 | 2.66 µM |
| COc1cc2c(c(OCC(=O)Nc3ccc4c(c3)OCCO4)c1)C(=O)O[C@@H](C)CCCC(=O)CCCCC2 | 48.5 µM |
| Cc1ccc(S(=O)(=O)c2cnc(SCC(=O)Nc3ccc(Cl)cc3)nc2N)cc1C | > 50 µM (inactive) |
| CCn1c(COc2cccc(C(F)(F)F)c2)nnc1SCc1ccc(Cl)cc1 | 28.8 µM |
| CC1Oc2cc3c(-c4c(O)cc(O)c5c(O)c6c(cc45)OC(C)C(C)C6=O)c(O)cc(O)c3c(O)c2C(=O)C1C (centres undefined) | 2.47 µM |
| O=C(Oc1ccc(-c2cnc3ccccc3n2)cc1)c1ccc(F)cc1 | > 50 µM (inactive) |
| Cc1cccc(NC(=O)CSc2ncnc3c2sc2nc(CC(C)C)c4c(c23)CCC4)c1 | > 50 µM (inactive) |
| CCOc1ccc(NC(=O)c2nc3c(=O)[nH]c4cc(C)ccc4n3n2)cc1 | > 50 µM (inactive) |
| COc1ccccc1-c1nc2c3c(ncn2n1)Oc1c(c(C)nn1-c1ccccc1)C3c1cccnc1 (centres undefined) | > 50 µM (inactive) |
| CCN(Cc1ccccc1)S(=O)(=O)c1ccc(C(=O)Nc2ccc3c(c2)OCCO3)cc1 | > 50 µM (inactive) |
| CC1(C)CC(=O)C2=C(C1)Nc1ccccc1N(C(=O)C(F)(F)F)C2c1cccs1 (centres undefined) | > 50 µM (inactive) |
| Cn1c2ccccc2c2ncn(Cc3ccc(F)cc3)c(=O)c21 | > 50 µM (inactive) |
| Cc1cc(NC(=O)c2[nH]nc3c2CCc2ccccc2-3)no1 | 37.9 µM |
| CCN(CC)c1cc(C)c2cc(NC(=O)c3ccncc3)ccc2n1 | > 50 µM (inactive) |
| CCOc1ccccc1NC(=O)COC(=O)C(c1ccccc1)c1ccccc1 | > 50 µM (inactive) |
| CC1=C(C)C(c2c(-c3ccc(C)cc3)[nH]c3ccccc23)N(C(C)(C)C)C1=O (centres undefined) | 8.84 µM |
| COc1ccc(NC(=O)C2CC(=O)Nc3c(-c4ccc(Cl)cc4)cnn32)c(OC)c1 (centres undefined) | 34 µM |
| Cc1ccc(NC(=O)c2cc(-c3cccnc3)n(-c3ccccc3)n2)nc1 | > 50 µM (inactive) |
| O=C(CCCCn1c(=O)c2ccccc2n(CC(=O)Nc2ccc(F)c(Cl)c2)c1=O)NCc1ccco1 | > 50 µM (inactive) |
| COCCCN1CCS(=O)(=O)c2c(Cl)c(F)nc(Oc3ccccc3F)c21 | > 50 µM (inactive) |
| Cc1nc2nc(SCc3nc4ccccc4n3C)[nH]c2cc1Br | > 50 µM (inactive) |

| SMILES | IC50 |
| --- | --- |
| CCc1ccc2c(c1)[C@]1(C(=O)N2)[C@@H]2C(=O)N(c3ccc(Cl)cc3Cl)C(=O)[C@@H]2[C@@H]2CCCN21 | > 50 µM (inactive) |
| COc1cccc2c1NC(=O)C21CCN(C(=O)Nc2cccc3ccccc23)CC1 | > 50 µM (inactive) |
| Cc1noc(C)c1CN1CC[C@H]2O[C@H](C(=O)NCc3ccco3)CC[C@H]21 | > 50 µM (inactive) |
| N#Cc1cc2c(nc1SCC(=O)NCc1ccccc1)CCCC2 | > 50 µM (inactive) |
| CC(C)Cc1nc2oc3c(N(C)CCO)ncnc3c2c2c1CCC2 | > 50 µM (inactive) |
| CN1C(=O)c2cc(NC(=O)c3ccccc3Cl)ccc2Oc2ccccc21 | > 50 µM (inactive) |
| CSc1nc2ncc3c(=O)n(CCc4ccccc4)ccc3n2n1 | > 50 µM (inactive) |
| C[C@@H]1O[C@@H](O[C@H]2[C@H](O[C@H]3[C@H](O[C@H]4CC[C@@]5(C)[C@@H](CC[C@]6(C)[C@@H]5CC=C5[C@@H]7CC(C)(C)CC(=O)[C@]7(C)CC[C@]56C)[C@@]4(C)CO)O[C@H](C(=O)O)[C@@H](O)[C@@H]3O)OC[C@@H](O)[C@@H]2O)[C@H](O)[C@H](O)[C@H]1O | > 50 µM (inactive) |
| Cc1cc(C)c2cc(CN(CCc3ccccc3)C(=O)Nc3ccccc3)c(=O)[nH]c2c1 | > 50 µM (inactive) |
| Cc1c(-c2nn3c(-c4ccco4)nnc3s2)cccc1[N+](=O)[O-] | > 5 µM (inactive) |
| COc1ccccc1CNC(=O)c1ccccc1OCc1ccccc1Cl | > 50 µM (inactive) |
| CC(C)C1Cc2c(sc3nc(SCC(=O)Nc4cccc5ccccc45)nc(N)c23)CO1 (centres undefined) | > 50 µM (inactive) |
| c1ccc(-c2ccc(NCc3ccc4c(c3)OCO4)nn2)cc1 | 23.1 µM |
| CCCCc1nc2sc3c(NCCN4CCOCC4)ncnc3c2c2c1CCC2 | > 50 µM (inactive) |
| COc1ccccc1CC(=O)N(C)C(c1ccccc1)c1ccccc1 | > 50 µM (inactive) |
| Cc1cccc(C(=O)Nc2ccccc2Sc2nc3c(c(=O)n(C)c(=O)n3C)n2C)c1 | > 50 µM (inactive) |
| Cc1ccc(Cl)cc1NC(=O)c1cc(-c2ccccn2)n[nH]1 | 24.5 µM |
| CCOc1ccc2c(c1)c(=O)c(C(=O)c1ccc(C)cc1)cn2CC(=O)Nc1ccc(OC)c(OC)c1 | 2.01 µM |
| O=C(NCc1ccc2c(c1)OCO2)c1cc(-c2cc(Cl)ccc2O)n[nH]1 | 40.7 µM |
| O=C(/C=C/c1ccco1)c1cccc([N+](=O)[O-])c1 | 23.2 µM |

From PubChem BioAssay AID1645868 (Buhrlage Lab, Dana-Farber Cancer Institute and Novartis …, 2021)
